# Reference: publication PMC11172375, “Preclinical Evaluation of Biodistribution and Toxicity of [^211At]PSMA-5 in Mice and Primates for the Targeted Alpha Therapy against Prostate Cancer” (International Journal of Molecular Sciences, 2024)
# Assays:
# [1] = TLC metabolite analysis of blood samples, monkeys; format: in vivo; conditions: cynomolgus monkeys, plasma
# Experimental: (§1) Monkeys were anesthetized with intramuscular administration of ketamine (10 mg/kg) and xylazine (0.5 mg/kg) with isoflurane inhalation anesthesia. Planar and Single Photon Emission Computed Tomography (SPECT) imaging was performed in monkeys using a γ-camera system (E-cam, Siemens, Erlangen, Germany) immediately after administration to 1 h and at 3 and 24 h post-administration of [^211At]PSMA-5 (9 MBq/kg), targeting the X-rays emitted from the daughter nuclide ^211Po (energy window: 79 keV ± 20%). Subsequent image analysis was performed by setting the regions of interest using Osirix MD software (Version 13, Pixmeo SARL, Bernex, Switzerland) and PMOD software (Version 3.903, PMOD Technologies, Fällanden, Switzerland). Blood samples were obtained pre-administration and at 1, 3, and 24 h post-administration, followed by euthanasia via bloodletting at 24 h.
# The blood samples were centrifuged at 3000 rpm for 5 min, and the resulting plasma was mixed with twice the volume of ethanol, then agitated vigorously. The supernatants were analyzed by thin-layer chromatography (TLC).
# [2] = Blood chemistry examination in mice; format: in vivo, ICR mice
# Experimental: (§2) [^211At]PSMA-5 was administered intravenously to 25 mice, and its biodistribution was evaluated. For the toxicity study, three doses of [^211At]PSMA-5 (5, 12, and 35 MBq/kg, single dose) or saline were intravenously administered to 10 mice/group for the main evaluation point on day 1, and 5-mice/group for recovery evaluation on day 14, adhering to the ICH M3 (R2) guidelines. The dosage was determined based on our previous study using [^211At]NaAt. The monkeys were monitored for 24 h post-administration of [^211At]PSMA-5 (9 MBq/kg).
# A blood cell counter was used for the measurements (CB-1010; ARKRAY, Inc., Kyoto, Japan). Red blood cell count (RBC), hemoglobin concentration (Hb), hematocrit (Ht), white blood cell count (WBC), platelet count (platelet), lymphocytes (%Lymph), monocytes (%Mon), and granulocytes (%Gra) were calculated. Plasma was analyzed using a dry clinical chemistry analyzer (Spotchem D-00 QR D-02; ARKRAY, Inc., Kyoto, Japan). The levels of aspartate aminotransferase (AST), alanine aminotransferase (ALT), gamma-glutamyl transpeptidase (γ-GTP), lactate dehydrogenase (LDH), alkaline phosphatase (ALP), creatine kinase (CK), amylase (AMY), total bilirubin (TBIL), creatinine (CRE), urea nitrogen (BUN), glucose (GLU), total protein (TP), albumin (ALB), total cholesterol (TCHO), triglyceride (TG), and electrolytes (Na, K, and Cl) were measured.
# [3] = Biodistribution in ICR mice; format: in vivo
# Experimental: as §2, §1
# Urine and feces samples were collected at each time point. Following euthanasia, the brain, thyroid gland, salivary gland, lungs, heart, liver, kidney, spleen, pancreas, stomach, small intestine, large intestine, bladder, testes, and prostate tissues were collected. Organ weights and radiation doses were measured using a γ-counter (model: 2480Wizard2, PerkinElmer) and γ-camera system (E-cam) by appropriate cross-calibration.
smiles,measurement,setting,value
O=C(O)CC[C@H](NC(=O)N[C@@H](CCCCNC(=O)[C@@H](Cc1ccc2ccccc2c1)NC(=O)c1ccc(CNC(=O)[C@@H](CCC(=O)O)NC(=O)[C@@H](CCC(=O)O)NC(=O)Cc2ccc([211At])cc2)cc1)C(=O)O)C(=O)O [[^211At]PSMA-5],metabolites in blood samples (TLC),[1],no metabolites were detected
same,ALB,"[2]; 5 MBq/kg i.v., day 1",2.3 ± 0.2 g/dL
same,ALP,"[2]; 5 MBq/kg i.v., day 1",194 ± 86 IU/L
same,ALT,"[2]; 5 MBq/kg i.v., day 1",41.2 ± 31.6 IU/L
same,AMY,"[2]; 5 MBq/kg i.v., day 1",2675 ± 562 IU/L
same,AST,"[2]; 5 MBq/kg i.v., day 1",43.8 ± 30.3 IU/L
same,BUN,"[2]; 5 MBq/kg i.v., day 1",22 ± 8.3 mg/dL
same,CK,"[2]; 5 MBq/kg i.v., day 1",180 ± 60 IU/L
same,CRE,"[2]; 5 MBq/kg i.v., day 1",0.2 ± 0 mg/dL
same,GLU,"[2]; 5 MBq/kg i.v., day 1",198 ± 70 mg/dL
same,K,"[2]; 5 MBq/kg i.v., day 1",4.5 ± 0.5 mEq/L
same,LDH,"[2]; 5 MBq/kg i.v., day 1",641 ± 281 IU/L
same,Na,"[2]; 5 MBq/kg i.v., day 1",141 ± 2.5 mEq/L
same,TBIL,"[2]; 5 MBq/kg i.v., day 1",0.6 ± 0.22 mg/dL
same,TCHO,"[2]; 5 MBq/kg i.v., day 1",130 ± 20 mg/dL
same,TG,"[2]; 5 MBq/kg i.v., day 1",112 ± 75 mg/dL
same,TP,"[2]; 5 MBq/kg i.v., day 1",4.1 ± 0.4 g/dL
same,γ-GTP,"[2]; 5 MBq/kg i.v., day 1",10 ± 0 IU/L
same,ALB,"[2]; 5 MBq/kg i.v., day 14",2.2 ± 0.1 g/dL
same,ALP,"[2]; 5 MBq/kg i.v., day 14",171 ± 36 IU/L
same,ALT,"[2]; 5 MBq/kg i.v., day 14",16.5 ± 4.9 IU/L
same,AMY,"[2]; 5 MBq/kg i.v., day 14",2200 ± 428 IU/L
same,AST,"[2]; 5 MBq/kg i.v., day 14",45 ± 22.7 IU/L
same,BUN,"[2]; 5 MBq/kg i.v., day 14",27.6 ± 1.1 mg/dL
same,CK,"[2]; 5 MBq/kg i.v., day 14",162 ± 91 IU/L
same,CRE,"[2]; 5 MBq/kg i.v., day 14",0.2 ± 0 mg/dL
same,GLU,"[2]; 5 MBq/kg i.v., day 14",146 ± 39 mg/dL
same,K,"[2]; 5 MBq/kg i.v., day 14",5.1 ± 1.2 mEq/L
same,LDH,"[2]; 5 MBq/kg i.v., day 14",611 ± 24 IU/L
same,Na,"[2]; 5 MBq/kg i.v., day 14",143 ± 1.9 mEq/L
same,TBIL,"[2]; 5 MBq/kg i.v., day 14",0.88 ± 0.16 mg/dL
same,TCHO,"[2]; 5 MBq/kg i.v., day 14",151 ± 18 mg/dL
same,TG,"[2]; 5 MBq/kg i.v., day 14",75 ± 17 mg/dL
same,TP,"[2]; 5 MBq/kg i.v., day 14",4.1 ± 0.5 g/dL
same,γ-GTP,"[2]; 5 MBq/kg i.v., day 14",10 ± 0 IU/L
same,ALB,"[2]; 12 MBq/kg i.v., day 1",2.3 ± 0.2 g/dL
same,ALP,"[2]; 12 MBq/kg i.v., day 1",193 ± 100 IU/L
same,ALT,"[2]; 12 MBq/kg i.v., day 1",29.0 ± 5.8 IU/L
same,AMY,"[2]; 12 MBq/kg i.v., day 1",2666 ± 537 IU/L
same,AST,"[2]; 12 MBq/kg i.v., day 1",37 ± 11.5 IU/L
same,BUN,"[2]; 12 MBq/kg i.v., day 1",20.7 ± 8.3 mg/dL
same,CK,"[2]; 12 MBq/kg i.v., day 1",192 ± 50 IU/L
same,CRE,"[2]; 12 MBq/kg i.v., day 1",0.2 ± 0 mg/dL
same,GLU,"[2]; 12 MBq/kg i.v., day 1",185 ± 42 mg/dL
same,K,"[2]; 12 MBq/kg i.v., day 1",4.5 ± 0.3 mEq/L
same,LDH,"[2]; 12 MBq/kg i.v., day 1",736 ± 363 IU/L
same,Na,"[2]; 12 MBq/kg i.v., day 1",142 ± 2.0 mEq/L
same,TBIL,"[2]; 12 MBq/kg i.v., day 1",0.53 ± 0.16 mg/dL
same,TCHO,"[2]; 12 MBq/kg i.v., day 1",128 ± 20 mg/dL
same,TG,"[2]; 12 MBq/kg i.v., day 1",119 ± 75 mg/dL
same,TP,"[2]; 12 MBq/kg i.v., day 1",4.1 ± 0.3 g/dL
same,γ-GTP,"[2]; 12 MBq/kg i.v., day 1",10 ± 0 IU/L
same,ALB,"[2]; 12 MBq/kg i.v., day 14",2.1 ± 0.3 g/dL
same,ALP,"[2]; 12 MBq/kg i.v., day 14",110 ± 59 IU/L
same,ALT,"[2]; 12 MBq/kg i.v., day 14",21.5 ± 0.7 IU/L
same,AMY,"[2]; 12 MBq/kg i.v., day 14",2514 ± 549 IU/L
same,AST,"[2]; 12 MBq/kg i.v., day 14",28.8 ± 15.4 IU/L
same,BUN,"[2]; 12 MBq/kg i.v., day 14",30.6 ± 6.1 mg/dL
same,CK,"[2]; 12 MBq/kg i.v., day 14",144 ± 26 IU/L
same,CRE,"[2]; 12 MBq/kg i.v., day 14",0.22 ± 0.04 mg/dL
same,GLU,"[2]; 12 MBq/kg i.v., day 14",148 ± 24 mg/dL
same,K,"[2]; 12 MBq/kg i.v., day 14",5.4 ± 0.8 mEq/L
same,LDH,"[2]; 12 MBq/kg i.v., day 14",456 ± 72 IU/L
same,Na,"[2]; 12 MBq/kg i.v., day 14",143 ± 2.8 mEq/L
same,TBIL,"[2]; 12 MBq/kg i.v., day 14",0.68 ± 0.13 mg/dL
same,TCHO,"[2]; 12 MBq/kg i.v., day 14",138 ± 20 mg/dL
same,TG,"[2]; 12 MBq/kg i.v., day 14",87 ± 42 mg/dL
same,TP,"[2]; 12 MBq/kg i.v., day 14",3.9 ± 0.4 g/dL
same,γ-GTP,"[2]; 12 MBq/kg i.v., day 14",10 ± 0 IU/L
same,ALB,"[2]; 35 MBq/kg i.v., day 1",2.2 ± 0.1 g/dL
same,ALP,"[2]; 35 MBq/kg i.v., day 1",208 ± 67 IU/L
same,ALT,"[2]; 35 MBq/kg i.v., day 1",53.0 ± 10.3 IU/L
same,AMY,"[2]; 35 MBq/kg i.v., day 1",2795 ± 363 IU/L
same,BUN,"[2]; 35 MBq/kg i.v., day 1",19.6 ± 6.2 mg/dL
same,CK,"[2]; 35 MBq/kg i.v., day 1",170 ± 65 IU/L
same,CRE,"[2]; 35 MBq/kg i.v., day 1",0.2 ± 0 mg/dL
same,GLU,"[2]; 35 MBq/kg i.v., day 1",201 ± 31 mg/dL
same,K,"[2]; 35 MBq/kg i.v., day 1",5.1 ± 0.5 mEq/L
same,LDH,"[2]; 35 MBq/kg i.v., day 1",638 ± 385 IU/L
same,Na,"[2]; 35 MBq/kg i.v., day 1",140 ± 1.4 mEq/L
same,TBIL,"[2]; 35 MBq/kg i.v., day 1",0.71 ± 0.48 mg/dL
same,TCHO,"[2]; 35 MBq/kg i.v., day 1",129 ± 21 mg/dL
same,TG,"[2]; 35 MBq/kg i.v., day 1",122 ± 79 mg/dL
same,TP,"[2]; 35 MBq/kg i.v., day 1",4.0 ± 0.3 g/dL
same,γ-GTP,"[2]; 35 MBq/kg i.v., day 1",10 ± 0 IU/L
same,AST,"[2]; 35 MBq/kg i.v., day 1, hemolysis was observed",51.5 ± 36.2 IU/L
same,ALB,"[2]; 35 MBq/kg i.v., day 14",2.3 ± 0.1 g/dL
same,ALP,"[2]; 35 MBq/kg i.v., day 14",133 ± 46 IU/L
same,ALT,"[2]; 35 MBq/kg i.v., day 14",13.0 ± 0.0 IU/L
same,AMY,"[2]; 35 MBq/kg i.v., day 14",2678 ± 388 IU/L
same,AST,"[2]; 35 MBq/kg i.v., day 14",28.4 ± 9.9 IU/L
same,BUN,"[2]; 35 MBq/kg i.v., day 14",23.4 ± 3.4 mg/dL
same,CK,"[2]; 35 MBq/kg i.v., day 14",141 ± 18 IU/L
same,CRE,"[2]; 35 MBq/kg i.v., day 14",0.2 ± 0 mg/dL
same,GLU,"[2]; 35 MBq/kg i.v., day 14",141 ± 21 mg/dL
same,K,"[2]; 35 MBq/kg i.v., day 14",4.7 ± 0.6 mEq/L
same,LDH,"[2]; 35 MBq/kg i.v., day 14",538 ± 129 IU/L
same,Na,"[2]; 35 MBq/kg i.v., day 14",143 ± 2.6 mEq/L
same,TBIL,"[2]; 35 MBq/kg i.v., day 14",0.68 ± 0.33 mg/dL
same,TCHO,"[2]; 35 MBq/kg i.v., day 14",144 ± 15 mg/dL
same,TG,"[2]; 35 MBq/kg i.v., day 14",67 ± 18 mg/dL
same,TP,"[2]; 35 MBq/kg i.v., day 14",4.1 ± 0.2 g/dL
same,γ-GTP,"[2]; 35 MBq/kg i.v., day 14",10 ± 0 IU/L
same,time of peak kidney uptake post-administration,"[3]; ICR mice, 5 MBq/kg i.v.",6 h
same,time of peak thyroid gland uptake,"[3]; ICR mice, 5 MBq/kg i.v.",3 h
same,cumulative fecal excretion,"[3]; ICR mice, 5 MBq/kg i.v., 6 h",3.03 ± 1.90 %ID
same,cumulative urinary excretion,"[3]; ICR mice, 5 MBq/kg i.v., 6 h",4.85 ± 1.76 %ID
same,cumulative fecal excretion,"[3]; ICR mice, 5 MBq/kg i.v., 24 h",24.07 ± 8.54 %ID
same,cumulative urinary excretion,"[3]; ICR mice, 5 MBq/kg i.v., 24 h",18.89 ± 4.57 %ID
same,uptake in the thyroid,"[3]; mice, 3 h post-administration",51 %ID/g
